Molecular target: T1, human Cav2.2 (composed of the subunits α1, β3 and α2δ) (Homo sapiens, UniProt Q00975)
T1 construct: expressed in transfected cells
Assay: FLIPR assay (TSA201 cells stably transfected with human Cav2.2 and human Kir2.3, FLUO-4 Ca2+ signal, KCl depolarization)
Type: cell-based
Settings: 70 mM KCl depolarization, average value
Procedure, shortened: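 TSA201 cells co-expressing Cav2.2 (α1, β3, α2δ) and Kir2.3 were loaded with FLUO-4 for 1 h at room temperature. Compound in HBSS with 1% DMSO was preincubated 15 min, then cells were depolarized with 70 mM final KCl (with CaCl2 and HEPES) and the Ca2+ fluorescence was read on FLIPR.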

T1 sequence (Q00975 whole entry): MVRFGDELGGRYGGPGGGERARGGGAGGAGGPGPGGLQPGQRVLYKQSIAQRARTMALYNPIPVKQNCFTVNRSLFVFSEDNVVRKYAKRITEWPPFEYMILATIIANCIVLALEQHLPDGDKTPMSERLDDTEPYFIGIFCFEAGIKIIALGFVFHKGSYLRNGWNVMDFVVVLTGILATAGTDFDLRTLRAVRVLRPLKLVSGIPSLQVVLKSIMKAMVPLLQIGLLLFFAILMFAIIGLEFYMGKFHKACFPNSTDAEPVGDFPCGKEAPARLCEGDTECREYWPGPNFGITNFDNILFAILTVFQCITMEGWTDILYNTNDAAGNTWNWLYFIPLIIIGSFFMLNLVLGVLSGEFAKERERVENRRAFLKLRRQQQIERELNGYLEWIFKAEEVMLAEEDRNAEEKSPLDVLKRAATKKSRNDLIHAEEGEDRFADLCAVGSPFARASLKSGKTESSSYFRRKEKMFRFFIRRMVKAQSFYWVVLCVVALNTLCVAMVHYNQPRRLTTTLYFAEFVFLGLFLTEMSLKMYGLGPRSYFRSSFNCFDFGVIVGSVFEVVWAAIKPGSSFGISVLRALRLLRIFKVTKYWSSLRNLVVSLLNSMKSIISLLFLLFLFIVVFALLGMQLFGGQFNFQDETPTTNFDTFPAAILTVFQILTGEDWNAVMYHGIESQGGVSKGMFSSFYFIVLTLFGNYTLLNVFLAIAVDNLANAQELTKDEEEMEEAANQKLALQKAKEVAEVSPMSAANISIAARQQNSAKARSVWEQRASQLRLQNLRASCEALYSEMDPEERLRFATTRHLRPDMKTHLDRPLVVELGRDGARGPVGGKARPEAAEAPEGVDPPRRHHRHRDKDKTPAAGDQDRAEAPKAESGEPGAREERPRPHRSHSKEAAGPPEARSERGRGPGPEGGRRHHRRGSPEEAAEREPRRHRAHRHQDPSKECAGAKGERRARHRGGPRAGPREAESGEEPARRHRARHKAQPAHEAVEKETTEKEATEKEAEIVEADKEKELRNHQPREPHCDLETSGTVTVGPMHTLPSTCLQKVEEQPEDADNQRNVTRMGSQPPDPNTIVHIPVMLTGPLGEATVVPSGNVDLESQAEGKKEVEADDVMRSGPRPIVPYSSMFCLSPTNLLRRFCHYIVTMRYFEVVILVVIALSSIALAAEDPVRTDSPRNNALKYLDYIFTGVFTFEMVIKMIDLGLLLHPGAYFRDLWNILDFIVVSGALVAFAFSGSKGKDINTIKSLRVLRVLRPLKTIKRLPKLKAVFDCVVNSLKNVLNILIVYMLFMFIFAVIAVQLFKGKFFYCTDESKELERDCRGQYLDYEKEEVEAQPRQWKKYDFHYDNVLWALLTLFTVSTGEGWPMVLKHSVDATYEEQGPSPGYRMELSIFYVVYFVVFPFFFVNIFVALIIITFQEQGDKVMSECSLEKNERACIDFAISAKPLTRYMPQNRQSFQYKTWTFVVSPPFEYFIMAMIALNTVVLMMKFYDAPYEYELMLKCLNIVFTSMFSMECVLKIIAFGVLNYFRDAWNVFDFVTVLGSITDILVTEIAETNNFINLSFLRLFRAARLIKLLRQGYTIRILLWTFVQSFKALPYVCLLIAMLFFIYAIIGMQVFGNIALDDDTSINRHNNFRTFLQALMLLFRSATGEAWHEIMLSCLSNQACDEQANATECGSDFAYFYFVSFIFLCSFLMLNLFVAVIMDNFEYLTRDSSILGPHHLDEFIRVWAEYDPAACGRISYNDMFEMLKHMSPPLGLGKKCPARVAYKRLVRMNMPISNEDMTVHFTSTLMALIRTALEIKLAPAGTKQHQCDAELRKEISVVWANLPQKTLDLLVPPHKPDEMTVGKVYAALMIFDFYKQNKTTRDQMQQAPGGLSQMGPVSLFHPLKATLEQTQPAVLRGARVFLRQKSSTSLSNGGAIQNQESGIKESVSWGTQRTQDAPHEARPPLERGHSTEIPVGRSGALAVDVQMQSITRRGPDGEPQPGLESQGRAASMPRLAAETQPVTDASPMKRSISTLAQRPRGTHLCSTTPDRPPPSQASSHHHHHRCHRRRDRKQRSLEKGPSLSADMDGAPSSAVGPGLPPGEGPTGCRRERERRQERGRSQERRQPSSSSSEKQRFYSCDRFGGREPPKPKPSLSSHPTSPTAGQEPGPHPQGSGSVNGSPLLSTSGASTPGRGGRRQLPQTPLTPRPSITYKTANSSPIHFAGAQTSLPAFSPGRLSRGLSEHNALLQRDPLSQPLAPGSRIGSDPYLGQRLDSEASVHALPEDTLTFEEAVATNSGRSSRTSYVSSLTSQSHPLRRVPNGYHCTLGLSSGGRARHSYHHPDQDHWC
T1 sequence (P54284 whole entry partner): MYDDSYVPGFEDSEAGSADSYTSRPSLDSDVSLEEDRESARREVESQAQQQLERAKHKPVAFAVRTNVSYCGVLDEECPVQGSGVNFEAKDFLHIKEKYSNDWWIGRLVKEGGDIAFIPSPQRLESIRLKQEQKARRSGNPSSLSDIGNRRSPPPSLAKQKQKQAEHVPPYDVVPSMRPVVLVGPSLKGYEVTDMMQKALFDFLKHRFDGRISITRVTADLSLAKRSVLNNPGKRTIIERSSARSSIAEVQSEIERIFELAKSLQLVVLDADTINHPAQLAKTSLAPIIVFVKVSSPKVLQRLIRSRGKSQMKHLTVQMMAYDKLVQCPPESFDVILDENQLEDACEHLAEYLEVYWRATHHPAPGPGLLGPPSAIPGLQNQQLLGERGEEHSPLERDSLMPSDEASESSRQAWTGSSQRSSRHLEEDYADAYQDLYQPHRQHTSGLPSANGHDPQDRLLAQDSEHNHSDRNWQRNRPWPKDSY
T1 sequence (P54289 25-946 partner limits assumed): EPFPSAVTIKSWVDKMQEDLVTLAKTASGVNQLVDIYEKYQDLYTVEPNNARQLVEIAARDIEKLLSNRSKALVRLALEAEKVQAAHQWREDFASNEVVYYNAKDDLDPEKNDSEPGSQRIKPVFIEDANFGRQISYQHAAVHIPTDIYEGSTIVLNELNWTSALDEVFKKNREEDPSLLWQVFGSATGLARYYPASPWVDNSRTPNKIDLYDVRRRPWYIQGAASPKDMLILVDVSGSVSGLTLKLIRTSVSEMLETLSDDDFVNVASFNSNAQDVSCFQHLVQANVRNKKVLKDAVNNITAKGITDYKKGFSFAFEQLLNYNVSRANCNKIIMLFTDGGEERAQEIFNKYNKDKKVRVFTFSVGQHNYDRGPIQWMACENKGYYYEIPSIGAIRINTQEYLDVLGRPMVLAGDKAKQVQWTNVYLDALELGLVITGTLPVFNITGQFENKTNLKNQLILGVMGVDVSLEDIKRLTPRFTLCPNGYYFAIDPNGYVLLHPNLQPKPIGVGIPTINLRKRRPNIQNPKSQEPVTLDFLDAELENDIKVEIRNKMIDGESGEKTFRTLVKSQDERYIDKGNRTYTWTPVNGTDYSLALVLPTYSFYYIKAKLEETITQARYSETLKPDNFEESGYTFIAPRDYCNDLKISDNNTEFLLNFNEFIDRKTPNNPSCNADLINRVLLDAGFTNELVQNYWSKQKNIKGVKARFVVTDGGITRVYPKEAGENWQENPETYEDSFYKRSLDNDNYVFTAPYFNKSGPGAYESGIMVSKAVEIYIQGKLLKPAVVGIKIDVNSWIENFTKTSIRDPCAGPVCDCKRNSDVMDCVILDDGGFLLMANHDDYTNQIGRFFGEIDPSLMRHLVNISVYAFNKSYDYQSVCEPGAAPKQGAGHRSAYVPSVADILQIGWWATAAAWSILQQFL
T1 sequence (P54289 947-1103 partner limits assumed): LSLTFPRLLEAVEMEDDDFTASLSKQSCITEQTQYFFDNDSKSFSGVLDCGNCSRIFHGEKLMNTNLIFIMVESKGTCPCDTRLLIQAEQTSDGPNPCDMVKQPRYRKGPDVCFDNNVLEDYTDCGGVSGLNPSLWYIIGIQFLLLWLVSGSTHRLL

| SMILES | IC50 [µM] |
| --- | --- |
| O=C(Cc1ccccc1)N(Cc1csc(N2CCOCC2)n1)C1CCCCC1 [Compound 201, N-cyclohexyl-N-[(2-morpholin-4-yl-1,3-thiazol-4-yl)methyl]-2-phenylacetamide] | 9.7 |
| CC(C)(C)OC(=O)c1cccc(-c2ccc(CN(C(=O)C(C)(C)C)c3ccc(F)cc3)cn2)c1 [Compound 202, tert-butyl 3-(5-{[(2,2-dimethylpropanoyl)(4-fluorophenyl)amino]methyl}pyridin-2-yl)benzoate] | 11.1 |
| CC(C)(C)C(=O)N(Cc1ccc(-c2cccc(C(=O)O)c2)nc1)c1ccc(F)cc1 [Compound 203, 3-(5-{[(2,2-dimethylpropanoyl)(4-fluorophenyl)amino]methyl}pyridin-2-yl)benzoic acid] | 39 |
| CC(C)(C)C(=O)N(Cc1csc(N2CCOCC2)n1)C1CCCCC1 [Compound 204, N-cyclohexyl-2,2-dimethyl-N-[(2-morpholin-4-yl-1,3-thiazol-4-yl)methyl]propanamide] | 11.4 |
| CCN(c1nc(CN(C(=O)C(C)(C)C)C2CCCCC2)cs1)C1CC1 [Compound 205, N-cyclohexyl-N-({2-[cyclopropyl(ethyl)amino]-1,3-thiazol-4-yl}methyl)-2,2-dimethylpropanamide] | 2.1 |
| O=C(C1CC1)N(Cc1csc(N2CCOCC2)n1)c1ccc(F)cc1 [Compound 207, N-(4-fluorophenyl)-N-[(2-morpholin-4-yl-1,3-thiazol-4-yl)methyl]cyclopropanecarboxamide] | 23.9 |
| CC(C)(C)OC(=O)N1CCC(c2nc(CN(C(=O)C(C)(C)C)c3ccc(F)cc3)cs2)CC1 [Compound 209, tert-butyl 4-(4-{[(2,2-dimethylpropanoyl)(4-fluorophenyl)amino]methyl}--1,3-thiazol-2-yl)piperidine-1-carboxylate] | 2.7 |
| CC(C)(C)C(=O)N(CCc1csc(N2CCOCC2)n1)c1ccc(F)cc1 [Compound 212, N-(4-flurophenyl)-2,2-dimethyl-N-[2-(2-morpholin-4-yl-1,3-thiazol-4-yl)ethyl]propanamide] | 5.9 |
| CC(C)(C)C(=O)N(CCCc1csc(N2CCOCC2)n1)c1ccc(F)cc1 [Compound 213, N-(4-fluorophenyl)-2,2-dimethyl-N-[3-(2-morpholin-4-yl-1,3-thiazol-4-yl)propyl]propanamide] | 3.8 |
| CC(=O)N(Cc1ccc(Cl)nc1)c1ccc(F)cc1 [Compound 215, N-[(6-chloropyridin-3-yl)methyl]-N-(4-fluorophenyl)acetamide] | 21.4 |
| CC(=O)N(Cc1ccc(N2CCCN(C)CC2)nc1)c1ccc(F)cc1 [Compound 226, N-(4-fluorophenyl)-N-{[6-(4-methyl-1,4-diazepan-1-yl)pyridin-3-yl]methyl}acetamide] | 26.2 |
| CC(=O)N(Cc1ccc(N2CCOCC2)nc1)c1ccc(F)cc1 [Compound 227, N-(4-fluorophenyl)-N-[(6-morpholin-4-ylpyridin-3-yl)methyl]acetamide] | 35 |
| CC(=O)N(Cc1ccc(N2CCC(C#N)CC2)nc1)c1ccc(F)cc1 [Compound 229, N-{[6-(4-cyanopiperidin-1-yl)pyridin-3-yl]methyl}-N-(4-fluorophenyl)acetamide] | 19.7 |
| CC(=O)N(Cc1ccc(N2CCC(O)CC2)nc1)c1ccc(F)cc1 [Compound 231, N-(4-fluorophenyl)-N-{[6-(4-hydroxypiperidin-1-yl)pyridin-3-yl]methyl}acetamide] | 49.7 |
| CC(=O)N(Cc1ccc(N2CCCC(O)C2)nc1)c1ccc(F)cc1 (centres unmarked) [Compound 232, N-(4-fluorophenyl)-N-{[6-(3-hydroxypiperidin-1-yl)pyridin-3-yl]methyl}acetamide] | 30.2 |
| CC(=O)N(Cc1ccc(N2CCC(CO)CC2)nc1)c1ccc(F)cc1 [Compound 233, N-(4-fluorophenyl)-N-({6-[4-(hydroxymethyl)piperidin-1-yl]pyridin-3-yl}methyl)acetamide] | 22.2 |
| CC(=O)N(Cc1ccc(N2CCCC(CO)C2)nc1)c1ccc(F)cc1 (centres unmarked) [Compound 234, N-(4-fluorophenyl)-N-({6-[3-(hydroxymethyl)piperidin-1-yl]pyridin-3-yl}methyl)acetamide] | 13.9 |
| CC(=O)N(Cc1ccc(N2CCC(CO)CC2)nc1)C1CCCC1 [Compound 235, N-cyclopentyl-N-({6-[4-(hydroxymethyl)piperidin-1-yl]pyridin-3-yl}methyl)acetamide] | 36.4 |
| CC(=O)N(Cc1ccc(N2CCN(C)CC2)nc1)C1CCCCC1 [Compound 236, N-cyclohexyl-N-{[6-(4-methylpiperzin-1-yl)pyridin-3-yl]methyl}acetamide] | 29.4 |
| CC(=O)N(Cc1ccc(N2CCC(CO)CC2)nc1)C1CCCCC1 [Compound 237, N-cyclohexyl-N-({6-[4-(hydroxymethyl)piperidin-1-yl]pyridin-3-yl}methyl)acetamide] | 23.9 |
| CCN(c1nc(CN(C(C)=O)C2CCC(C(C)(C)C)CC2)cs1)C1CC1 (centres unmarked) [Compound 238, N-(4-tert-butylcyclohexyl)-N-({2-[cyclopropyl(ethyl)amino]-1,3-thiazol-4-yl}methyl)acetamide] | 3.3 |
| CC(C)(C)C(=O)N(Cc1csc(-c2cnc3ccccc3c2)n1)c1ccc(F)cc1 [Compound 240, N-(4-fluorophenyl)-2,2-dimethyl-N-[(2-quinolin-3-yl-1,3-thiazol-4-yl)methyl]propanamide] | 10.1 |

Other lines, results leading:

| IC50 [µM] | SMILES |
| --- | --- |
| 6.1 | CC(C)(C)C(=O)N(Cc1csc(C2CCCCC2)n1)c1ccc(F)cc1 [Compound 206, N-[(2-cyclohexyl-1,3-thiazol-4-yl)methyl]-N-(4-fluorophenyl)-2,2-dimethylpropanamide] |
| 22.2 | CC(C)C(=O)N(Cc1csc(N2CCOCC2)n1)c1ccc(F)cc1 [Compound 208, N-(4-fluorophenyl)-2-methyl-N-[(2-morpholin-4-yl-1,3-thiazol-4-yl)methyl]propanamide] |
| 9.1 | CCN(c1nc(CN(C(C)=O)c2ccc(F)cc2)cs1)C1CC1 [Compound 210, N-({2-[cyclopropyl(ethyl)amino]-1,3-thiazol-4-yl}methyl)-N-(4-fluorophenyl)acetamide] |
| 2.4 | CCN(c1nc(CN(C(=O)C2CCCCC2)c2ccc(F)cc2)cs1)C1CC1 [Compound 211, N-({2-[cyclopropyl(ethyl)amino]-1,3-thiazol-4-yl}methyl)-N-(4-fluorophenyl)cyclohexanecarboxamide] |
| 48.7 | CC(=O)N(Cc1csc(Br)n1)c1ccc(F)cc1 [Compound 214, N-[(2-bromo-1,3-thiazol-4-yl)methyl]-N-(4-fluorophenyl)acetamide] |
| 29.4 | CC(=O)N(Cc1csc(N2CCN(C)CC2)n1)c1ccc(F)cc1 [Compound 216, N-(4-fluorophenyl)-N-{[2-(4-methylpiperazin-1-yl)-1,3-thiazol-4-yl]methyl}acetamide] |
| 29.5 | CC(=O)N(Cc1csc(N2CCCN(C)CC2)n1)c1ccc(F)cc1 [Compound 217, N-(4-fluorophenyl)-N-{[2-(4-methyl-1,4-diazepan-1-yl)-1,3-thiazol-4-yl]methyl}acetamide] |
| 23.4 | CC(=O)N(Cc1csc(N2CCOCC2)n1)c1ccc(F)cc1 [Compound 218, N-(4-fluorophenyl)-N-[(2-morpholin-4-yl-1,3-thiaozl-4-yl)methyl]acetamide] |
| 8.7 | CCN(CC)c1nc(CN(C(C)=O)c2ccc(F)cc2)cs1 [Compound 219, N-{[2-(diethylamino)-1,3-thiaozl-4-yl]methyl}-N-(4-fluorophenyl)acetamide] |
| 16.6 | CC(=O)N(Cc1csc(N2CCC(C#N)CC2)n1)c1ccc(F)cc1 [Compound 220, N-{[2-(4-cyanopiperidin-1-yl)-1,3-thiazol-4-yl]methyl}-N-(4-fluorophenyl)acetamide] |
| 37 | CC(=O)N(Cc1csc(N(C)CCO)n1)c1ccc(F)cc1 [Compound 221, N-(4-fluorophenyl)-N-({2-[(2-hydroxyethyl)(methyl)amino]-1,3-thiazol-4-yl}methyl)acetamide] |
| 22.4 | CC(=O)N(Cc1csc(N2CCC(O)CC2)n1)c1ccc(F)cc1 [Compound 222, N-(4-fluorophenyl)-N-{[2-(4-hydroxypiperidin-1-yl)-1,3-thiazol-4-yl]methyl}acetamide] |
| 31.4 | CC(=O)N(Cc1csc(N2CCCC(O)C2)n1)c1ccc(F)cc1 (centres unmarked) [Compound 223, N-(4-fluorophenyl)-N-{[2-(3-hydroxypiperidin-1-yl)-1,3-thiazol-4-yl]methyl}acetamide] |
| 12.3 | CC(=O)N(Cc1csc(N2CCC(CO)CC2)n1)c1ccc(F)cc1 [Compound 224, N-(4-fluorophenyl)-N-({2-[4-(hydroxymethyl)piperidin-1-yl]-1,3-thiazol-4-yl}methyl)acetamide] |
| 16.4 | CC(=O)N(Cc1csc(N2CCCC(CO)C2)n1)c1ccc(F)cc1 (centres unmarked) [Compound 225, N-(4-fluorophenyl)-N-({2-[3-(hydroxymethyl)piperidin-1-yl]-1,3-thiazol-4-yl}methyl)acetamide] |
| 12.6 | CCN(CC)c1ccc(CN(C(C)=O)c2ccc(F)cc2)cn1 [Compound 228, N-{[6-(diethylamino)pyridin-3-yl]methyl}-N-(4-fluorophenyl)acetamide] |
| 45.3 | CC(=O)N(Cc1ccc(N(C)CCO)nc1)c1ccc(F)cc1 [Compound 230, N-(4-fluorophenyl)-N-({6-[(2-hydroxyethyl)(methyl)amino]pyridin-3-yl}methyl)acetamide] |
| 3.4 | CC1CN(c2nc(CN(C(=O)C(C)(C)C)c3ccc(F)cc3)cs2)CC(C)O1 (centres unmarked) [Compound 239, 2,2-dimethylpropanamide N-{[2-(2,6-dimethylmorpholin-4-yl)-1,3-thiazol-4-yl]methyl}-N-(4-fluorophenyl)-] |
| 6.7 | CC(C)(C)C(=O)N(Cc1csc(-c2ccc(C(F)(F)F)cc2)n1)c1ccc(F)cc1 [Compound 241, N-(4-fluorophenyl)-2,2-dimethyl-N-({2-[4-(trifluoromethyl)phenyl]-1,3-thiazol-4-yl}methyl)propanamide] |

Reference: patent US20100267697A1, “ION CHANNEL MODULATORS” (Wyeth, priority 2006, published 2010)
